How the values were obtained:
Progesterone receptor = target: T1, Progesterone receptor (Homo sapiens, UniProt P06401)
T1 sequence (P06401 whole entry): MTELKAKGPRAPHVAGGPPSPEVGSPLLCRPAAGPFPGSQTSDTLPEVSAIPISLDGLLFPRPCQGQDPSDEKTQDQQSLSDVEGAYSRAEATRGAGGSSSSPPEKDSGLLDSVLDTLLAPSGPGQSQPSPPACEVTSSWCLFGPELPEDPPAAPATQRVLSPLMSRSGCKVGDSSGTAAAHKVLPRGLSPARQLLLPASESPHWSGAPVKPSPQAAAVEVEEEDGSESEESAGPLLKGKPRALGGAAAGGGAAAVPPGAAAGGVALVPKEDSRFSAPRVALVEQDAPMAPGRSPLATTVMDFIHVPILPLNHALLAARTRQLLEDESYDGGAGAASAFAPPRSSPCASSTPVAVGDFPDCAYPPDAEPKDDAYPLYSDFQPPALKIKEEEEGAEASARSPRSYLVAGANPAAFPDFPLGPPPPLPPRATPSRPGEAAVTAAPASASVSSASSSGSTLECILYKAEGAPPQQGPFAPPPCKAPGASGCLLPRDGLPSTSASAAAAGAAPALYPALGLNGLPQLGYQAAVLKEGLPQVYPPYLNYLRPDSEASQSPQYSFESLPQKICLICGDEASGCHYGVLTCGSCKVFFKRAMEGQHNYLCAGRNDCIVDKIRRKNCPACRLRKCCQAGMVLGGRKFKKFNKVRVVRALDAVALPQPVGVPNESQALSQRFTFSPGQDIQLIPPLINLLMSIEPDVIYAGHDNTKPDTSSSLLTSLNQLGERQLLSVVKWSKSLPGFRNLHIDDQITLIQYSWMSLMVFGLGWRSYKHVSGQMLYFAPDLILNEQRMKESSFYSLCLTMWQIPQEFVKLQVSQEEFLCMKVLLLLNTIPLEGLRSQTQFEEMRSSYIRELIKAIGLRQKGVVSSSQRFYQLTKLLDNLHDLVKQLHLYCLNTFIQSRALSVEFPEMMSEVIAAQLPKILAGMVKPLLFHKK

[1] = target: T2, Gastric inhibitory polypeptide receptor (Homo sapiens, UniProt P48546)
T2 sequence (P48546 whole entry): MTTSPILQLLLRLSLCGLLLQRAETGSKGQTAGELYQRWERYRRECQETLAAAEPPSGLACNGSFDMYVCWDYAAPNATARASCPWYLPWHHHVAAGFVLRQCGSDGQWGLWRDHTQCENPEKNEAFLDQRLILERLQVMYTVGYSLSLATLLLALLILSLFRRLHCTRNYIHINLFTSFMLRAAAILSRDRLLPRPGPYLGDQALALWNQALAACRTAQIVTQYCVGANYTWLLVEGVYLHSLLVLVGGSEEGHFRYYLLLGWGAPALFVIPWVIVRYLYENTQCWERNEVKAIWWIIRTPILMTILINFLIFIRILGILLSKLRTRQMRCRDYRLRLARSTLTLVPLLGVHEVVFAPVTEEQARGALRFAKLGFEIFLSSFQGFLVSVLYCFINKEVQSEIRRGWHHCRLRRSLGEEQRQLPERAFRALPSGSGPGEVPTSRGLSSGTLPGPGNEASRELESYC

[2] = target: Voltage-dependent L-type calcium channel subunit alpha-1C (Rattus norvegicus, UniProt P22002); format: functional
Voltage-dependent L-type calcium channel subunit alpha-1C, sequence (P22002 whole entry): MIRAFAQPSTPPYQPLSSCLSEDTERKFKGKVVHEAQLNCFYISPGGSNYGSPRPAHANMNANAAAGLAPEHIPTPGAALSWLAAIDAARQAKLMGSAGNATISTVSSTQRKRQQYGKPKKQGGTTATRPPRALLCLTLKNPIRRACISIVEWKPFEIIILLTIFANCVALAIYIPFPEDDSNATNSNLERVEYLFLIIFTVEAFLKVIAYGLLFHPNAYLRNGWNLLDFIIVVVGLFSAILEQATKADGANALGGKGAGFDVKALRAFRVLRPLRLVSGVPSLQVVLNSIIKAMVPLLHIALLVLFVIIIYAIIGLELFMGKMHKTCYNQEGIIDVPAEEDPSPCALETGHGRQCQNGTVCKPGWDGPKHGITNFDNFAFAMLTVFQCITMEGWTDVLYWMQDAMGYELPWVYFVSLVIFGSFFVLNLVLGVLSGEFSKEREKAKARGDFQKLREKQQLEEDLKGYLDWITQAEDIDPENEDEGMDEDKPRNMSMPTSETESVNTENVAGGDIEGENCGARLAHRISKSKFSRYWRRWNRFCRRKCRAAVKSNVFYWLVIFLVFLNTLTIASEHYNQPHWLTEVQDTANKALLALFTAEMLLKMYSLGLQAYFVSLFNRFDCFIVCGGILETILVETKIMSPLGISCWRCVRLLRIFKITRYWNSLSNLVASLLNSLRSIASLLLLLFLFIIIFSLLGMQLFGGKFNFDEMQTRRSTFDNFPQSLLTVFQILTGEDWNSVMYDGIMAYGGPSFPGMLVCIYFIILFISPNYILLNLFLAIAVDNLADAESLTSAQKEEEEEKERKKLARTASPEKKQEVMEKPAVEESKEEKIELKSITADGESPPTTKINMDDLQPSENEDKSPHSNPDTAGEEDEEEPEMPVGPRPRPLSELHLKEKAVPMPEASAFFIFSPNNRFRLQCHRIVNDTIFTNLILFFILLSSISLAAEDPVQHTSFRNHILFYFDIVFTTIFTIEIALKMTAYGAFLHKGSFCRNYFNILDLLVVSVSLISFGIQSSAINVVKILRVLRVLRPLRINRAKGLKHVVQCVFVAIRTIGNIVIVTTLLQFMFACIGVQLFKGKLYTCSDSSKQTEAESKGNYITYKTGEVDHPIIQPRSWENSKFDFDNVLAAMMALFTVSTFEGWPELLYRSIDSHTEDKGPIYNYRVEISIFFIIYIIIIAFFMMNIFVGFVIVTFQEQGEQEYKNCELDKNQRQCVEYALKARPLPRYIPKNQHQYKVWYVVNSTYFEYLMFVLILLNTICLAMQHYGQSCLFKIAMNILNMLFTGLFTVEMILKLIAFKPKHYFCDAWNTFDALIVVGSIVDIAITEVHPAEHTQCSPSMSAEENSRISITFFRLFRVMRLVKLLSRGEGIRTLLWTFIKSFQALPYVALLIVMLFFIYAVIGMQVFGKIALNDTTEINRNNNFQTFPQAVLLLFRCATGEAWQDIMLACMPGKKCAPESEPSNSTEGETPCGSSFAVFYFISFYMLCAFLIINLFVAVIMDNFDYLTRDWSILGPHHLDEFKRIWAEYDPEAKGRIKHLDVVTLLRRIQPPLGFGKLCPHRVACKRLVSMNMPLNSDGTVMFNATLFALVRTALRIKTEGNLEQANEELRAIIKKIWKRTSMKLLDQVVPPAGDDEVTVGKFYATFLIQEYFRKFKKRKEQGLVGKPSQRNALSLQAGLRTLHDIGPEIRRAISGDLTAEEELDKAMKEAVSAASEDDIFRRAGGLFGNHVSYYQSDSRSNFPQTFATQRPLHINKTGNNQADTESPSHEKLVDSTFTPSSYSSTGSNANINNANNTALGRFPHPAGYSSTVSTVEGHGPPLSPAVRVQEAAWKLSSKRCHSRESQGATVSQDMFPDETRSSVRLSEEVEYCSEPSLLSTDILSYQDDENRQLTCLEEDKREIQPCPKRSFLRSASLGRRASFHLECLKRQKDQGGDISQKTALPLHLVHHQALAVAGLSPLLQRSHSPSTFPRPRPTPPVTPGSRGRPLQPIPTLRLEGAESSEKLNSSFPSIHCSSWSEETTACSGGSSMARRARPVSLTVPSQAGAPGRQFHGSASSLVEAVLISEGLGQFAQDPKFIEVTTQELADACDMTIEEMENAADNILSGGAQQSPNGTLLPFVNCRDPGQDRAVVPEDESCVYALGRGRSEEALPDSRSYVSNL

B1 bradykinin receptor = target: T3, B1 bradykinin receptor (Homo sapiens, UniProt P46663)
T3 sequence (P46663 whole entry): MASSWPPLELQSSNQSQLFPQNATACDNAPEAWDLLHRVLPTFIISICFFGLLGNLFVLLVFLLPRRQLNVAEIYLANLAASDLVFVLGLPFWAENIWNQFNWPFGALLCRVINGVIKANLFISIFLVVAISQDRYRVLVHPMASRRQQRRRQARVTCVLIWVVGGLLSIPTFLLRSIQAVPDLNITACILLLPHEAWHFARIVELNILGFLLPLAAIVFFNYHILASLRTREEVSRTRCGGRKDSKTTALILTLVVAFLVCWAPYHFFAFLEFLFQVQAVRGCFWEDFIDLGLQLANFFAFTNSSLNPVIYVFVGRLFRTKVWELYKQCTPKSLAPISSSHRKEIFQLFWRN

[3] = target: T4, Peroxisome proliferator-activated receptor gamma (Homo sapiens, UniProt P37231); format: functional
T4 sequence (P37231 whole entry): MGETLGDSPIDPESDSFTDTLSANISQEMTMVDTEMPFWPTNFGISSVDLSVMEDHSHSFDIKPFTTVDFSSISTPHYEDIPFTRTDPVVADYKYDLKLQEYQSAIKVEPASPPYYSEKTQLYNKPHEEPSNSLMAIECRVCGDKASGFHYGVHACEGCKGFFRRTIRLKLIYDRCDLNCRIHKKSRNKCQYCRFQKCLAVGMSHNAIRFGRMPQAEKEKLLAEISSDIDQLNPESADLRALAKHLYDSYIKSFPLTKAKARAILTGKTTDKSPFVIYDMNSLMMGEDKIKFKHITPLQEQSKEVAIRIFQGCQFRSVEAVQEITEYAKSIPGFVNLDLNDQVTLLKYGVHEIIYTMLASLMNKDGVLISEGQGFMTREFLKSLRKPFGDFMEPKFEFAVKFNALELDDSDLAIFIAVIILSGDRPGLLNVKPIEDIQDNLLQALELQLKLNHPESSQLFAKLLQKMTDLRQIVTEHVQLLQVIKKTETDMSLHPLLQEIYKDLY

Histamine H2 receptor = Histamine H2 receptor (Homo sapiens, UniProt P25021)
Histamine H2 receptor, sequence (P25021 whole entry): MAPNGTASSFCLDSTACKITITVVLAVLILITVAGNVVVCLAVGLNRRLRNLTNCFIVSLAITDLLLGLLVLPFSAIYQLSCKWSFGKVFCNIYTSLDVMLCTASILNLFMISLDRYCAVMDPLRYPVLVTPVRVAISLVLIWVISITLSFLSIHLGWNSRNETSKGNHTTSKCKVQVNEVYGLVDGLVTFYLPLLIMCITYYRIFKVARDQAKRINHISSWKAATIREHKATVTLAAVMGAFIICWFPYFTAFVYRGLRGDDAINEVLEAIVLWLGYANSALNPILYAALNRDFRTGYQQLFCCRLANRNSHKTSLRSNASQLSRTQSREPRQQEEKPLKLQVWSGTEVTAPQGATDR

Adenosine receptor A1 = target: T5, Adenosine receptor A1 (Homo sapiens, UniProt P30542)
T5 sequence (P30542 whole entry): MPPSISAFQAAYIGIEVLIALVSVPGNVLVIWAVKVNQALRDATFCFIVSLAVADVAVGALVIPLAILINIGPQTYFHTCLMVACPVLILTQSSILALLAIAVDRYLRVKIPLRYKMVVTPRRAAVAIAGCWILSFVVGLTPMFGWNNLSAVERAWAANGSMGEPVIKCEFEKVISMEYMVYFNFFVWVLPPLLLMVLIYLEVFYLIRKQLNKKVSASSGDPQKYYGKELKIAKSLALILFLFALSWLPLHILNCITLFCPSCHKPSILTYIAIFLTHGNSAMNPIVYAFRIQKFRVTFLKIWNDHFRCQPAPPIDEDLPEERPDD
Note: assay procedure not described here.

SMILES | AC50 (Progesterone receptor) | AC50 [1] | AC50 [2] | AC50 (B1 bradykinin receptor) | AC50 [3] | AC50 (Histamine H2 receptor) | AC50 (Adenosine receptor A1)
CCOc1nc2cccc(C(=O)O)c2n1Cc1ccc(-c2ccccc2-c2nnn[nH]2)cc1 | > 30 µM | > 30 µM | > 10 µM | > 30 µM | > 30 µM | > 10 µM | –
CCCc1nc2c(C)cc(-c3nc4ccccc4n3C)cc2n1Cc1ccc(-c2ccccc2C(=O)O)cc1 | > 30 µM | > 30 µM | > 30 µM | > 30 µM | > 30 µM | > 10 µM | –
COc1cc(C(C)=O)ccc1OCCCN1CCC(c2noc3cc(F)ccc23)CC1 [ILOPERIDONE] | – | – | – | – | > 30 µM | – | > 30 µM

From ChEMBL document CHEMBL5291721, “A preclinical secondary pharmacology resource illuminates target-adverse drug reaction associations of marketed drugs” (Nat Commun, 2023)
